# Columns and labels:
# Type in all cases: cell-based, Human
# A549 cells [1] = experiment: Multi-omics analysis (transcriptome, proteome, phosphoproteome, metabolome); conditions: 50 μM cisplatin, A549 cells, 1, 6, 24 and 48 h
# Procedure: Samples were analyzed for transcriptome changes by RNA sequencing at the Genomics Services Lab, HudsonAlpha, for proteome changes by label free, SILAC, and phospho-enriched SILAC LC-MS/MS, and metabolome changes by UPLC-IM-MS and data-independent acquisition (MSE) using both hydrophilic-interaction liquid chromatography and reverse phase liquid chromatography.
# RNA was isolated using the RNeasy Mini Kit (Qiagen). For each time point, untreated and cisplatin-treated samples were isolated in triplicate and analyzed by the Genomics Services Lab at HudsonAlpha. RNAseq was performed using poly(A) selection on an Illumina HiSeq v4 sequencing platform. Reads were paired-end with a read length of 50 bp and 50 million reads per sample.
# Cells were scraped from slides and lysed in 300 μL of 50 mM Tris pH 8, 150 mM NaCl, 1% Nonidet 40, 1 mM EDTA with added HALT Protease Inhibitor Cocktail (Thermo Scientific), centrifuged, and assayed for protein concentration (BCA Protein Assay, Thermo Scientific Pierce) using a SpectraMax M2e Microplate Reader with SoftMax Pro software version 5 (Molecular Devices). Aliquots of 100 μg of protein were acetone precipitated in six times the volume for 2 h at −80° C. Precipitates were washed three times with cold acetone and reconstituted in 10 μL of neat trifluoroethanol (TFE) and 10 μL of 100 mM Tris (pH 8.0). […]
# A549 cells [2] = experiment: Molecular screening assay (MALDI FTICR MS molecular variance score); conditions: 1 and 6 h exposure, doses 20-100 μM
# Procedure: After incubation for the respective times, wells were washed 3 times with PBS and stored at −80° C. The effect of different toxin dosage amounts and exposure times on the molecular content of a sample may be evaluated and reported directly for thousands of molecular species based upon the mass spectra that were collected for each of the samples. A comparison of the mass-to-charge (m/z) peak content between spectra from dosed cells and a reference spectrum from a non-dosed control sample delivers a mass spectrometric assessment of toxicity-induced molecular variation. However, seeking a data-driven global comparison instead of focusing on specific molecular species of interest makes the assessment of molecular change between the different experimental conditions very complex and high dimensional. To determine which dosage amount induces the greatest molecular change, a quick and broad assessment of toxicity-induced molecular variance summarizing the entire recorded mass range was developed. […]
# Within each time point (represented by a 24-well plate), seven different dosage conditions were measured: six different toxin dosages and one reference condition (e.g., untreated). Per dosage condition there were nine distinct replicate measurements made: each dosage condition was represented by three replicate wells, from which three technical replicate spectra were measured per well. […]
# A549 cells [3] = experiment: Apoptosis assay (ApoONE, caspase 3/7 activation); conditions: 50 μM cisplatin
# Procedure: Cell viability and apoptosis were assessed by CellTiter Glo (Promega) and ApoONE (Promega) kits, respectively. Molecular changes were screened using a MALDI524 FTICR MS platform.
# Human lung carcinoma A549 cells were obtained from ATCC (Manassas, Va.) and cultured in Dulbecco's Modified Eagle's Medium (DMEM, Gibco) with 10% v/v heat-inactivated fetal bovine serum (Atlanta Biologicals) and 1% v/v penicillin/streptomycin (P/S) (Gibco) at 37° C. with 5% CO2 atmosphere. Stable isotope labeling by amino acids in cell culture (SILAC) media were prepared using SILAC DMEM (Thermo Scientific) containing 10% v/v dialyzed heat-inactivated FBS (Fisher), 1% v/v P/S, proline (250 mg/L) (Thermo Scientific), and appropriate light and heavy labeled arginine (84 mg/L), lysine (146 mg/L). […]
# At each time point, cell viability and apoptosis were assessed by CellTiter-Glo (Promega) and ApoONE (Promega) kits, respectively. Plates were incubated at 37° C. in a plate reader (BioTek) with data acquisition every 10 min by luminescence (1 s read time, 200 gain) and fluorescence (485 nm excitation, 528 nm emission). […] Cell viability was also assessed using the LIVE/DEAD Viability/Cytotoxicity Kit for mammalian cells (ThermoFisher). […]
compound,measurement,setting,value
N.N.[Cl][Pt][Cl] [cisplatin],percentage of unique species detected that were significantly changed,A549 cells [1],24%
same,number of significantly changed unique species,"A549 cells [1]; of 53,500 unique species detected","13,483"
same,"dose up to which molecular variance increased (maximum molecular response, optimal dose)",A549 cells [2],50 µM
same,time of maximal caspase activation,A549 cells [3],24 h

# From patent publication US20170023547A1, “CHEMICAL THREAT ASSESSMENT BY RAPID MOLECULAR PHENOTYPING” (Vanderbilt University, priority 2015, published 2017)
